“Also recorded” adds a separate entry of the source.
Key:
Bovine PAFR = molecular target: T1, Bovine PAFR (Bos taurus, UniProt Q9TTY5); assay: PAF-mediated intracellular calcium accumulation in BHK cells transiently expressing bovine PAFR; format: cell-based; settings: 10 nM PAF, transfected BHK cells; for block of bovine PAFR function, PAF-mediated intracellular calcium accumulation (FIG. 11): antagonist 1-100 nM; for block of bovine PAFR function by antihistamines, PAF-mediated intracellular calcium accumulation (FIG. 12): antihistamine 1-100 nM
T1 construct: expressed in transfected cells; host or cells: BHK cells, transient transfection with lipofectamine, pcDNA3.3-PAFR
T1 sequence (Q9TTY5 whole entry): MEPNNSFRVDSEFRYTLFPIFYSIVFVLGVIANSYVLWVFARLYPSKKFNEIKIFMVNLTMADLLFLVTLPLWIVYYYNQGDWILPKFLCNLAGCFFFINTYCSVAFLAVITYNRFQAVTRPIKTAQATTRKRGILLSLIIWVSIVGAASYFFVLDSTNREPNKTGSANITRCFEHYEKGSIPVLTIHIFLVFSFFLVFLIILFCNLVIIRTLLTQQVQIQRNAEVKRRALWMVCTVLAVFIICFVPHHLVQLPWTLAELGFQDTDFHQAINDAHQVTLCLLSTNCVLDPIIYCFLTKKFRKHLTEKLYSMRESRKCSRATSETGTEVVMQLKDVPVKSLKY
Method: Bovine PAFR was cloned into pcDNA3.3 expression vector and transiently expressed in BHK tissue culture cells using lipofectamine as per Carlson et al., J Biol Chem, 271:23146053 (1996), herein incorporated by reference in its entirety. Ten nM PAF was then added to the cells in the presence of various concentrations of various antagonists: rupatadine, lexipafant (as in Kingsnorth, et al., BJS, 82:1414-20 (1995), herein incorporated in its entirety), and WEB2086 a PAF antagonist which has not been commercialized and/or used in humans to date (as in Casals-Stenzel et al., J of Pharmacolo Experimental Therapeutics, 241:974-81 (1987), herein incorporated in its entirety), as well as tripelennamine, a bovine-approved antihistamine at concentrations ranging between 1-100 nM. Intracellular calcium accumulation was monitored in the transfected cells using a commercially available kit (Abcam, Cambridge). IC50 values were then determined by identifying the concentration of the antagonist that reduced the maximal PAF-mediated intracellular calcium accumulation by 50%.
Various antihistamines were also tested. […] Intracellular calcium accumulation was monitored in the transfected cells using a commercially available kit (Abcam, Cambridge). IC50 values were then determined by identifying the concentration of the antagonist that reduced the maximal PAF-mediated intracellular calcium accumulation by 50%.

[1] = molecular target: T2, Bovine H1 histamine receptor (Bos taurus, UniProt P30546); assay: Histamine-mediated intracellular calcium accumulation in BHK cells transiently expressing bovine H1 histamine receptor; format: cell-based; settings: 10 nM histamine; transfected BHK cells
T2 construct: expressed in transfected cells; host or cells: BHK cells, transient transfection with lipofectamine, pcDNA3.3
T2 sequence (P30546 whole entry): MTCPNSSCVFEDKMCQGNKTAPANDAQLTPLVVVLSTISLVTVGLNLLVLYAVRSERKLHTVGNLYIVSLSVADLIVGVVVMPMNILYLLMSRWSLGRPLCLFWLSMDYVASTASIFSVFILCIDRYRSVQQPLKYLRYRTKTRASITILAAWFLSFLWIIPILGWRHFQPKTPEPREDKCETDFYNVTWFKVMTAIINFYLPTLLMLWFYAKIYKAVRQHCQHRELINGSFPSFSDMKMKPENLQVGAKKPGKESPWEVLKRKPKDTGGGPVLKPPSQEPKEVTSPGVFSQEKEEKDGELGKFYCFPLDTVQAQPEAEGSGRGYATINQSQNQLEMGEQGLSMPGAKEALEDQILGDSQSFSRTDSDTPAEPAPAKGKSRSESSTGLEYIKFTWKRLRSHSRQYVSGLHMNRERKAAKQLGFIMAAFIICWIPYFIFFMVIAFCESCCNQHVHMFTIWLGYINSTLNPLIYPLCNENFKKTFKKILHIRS
Method: Bovine H1 histamine receptor was cloned into pcDNA3.3 expression vector and transiently expressed in BHK tissue culture cells using lipofectamine as per Carlson et al. Ten nM histamine was then added to the cells in the presence of various concentrations of rupatadine, tripelennamine, lexipafant, or WEB2086. Intracellular calcium accumulation was monitored in the transfected cells using a commercially available kit (Abcam, Cambridge, Mass.). IC50 values were then determined by identifying the concentration of the antagonist that reduced the maximal PAF-mediated intracellular calcium accumulation by 50%. […] Therefore, as showing in Examples 11 and 12, rupatadine is the only antihistamine that can also block the function of PAFR.

BRD [2] = assay: BRD prevention in high-risk calves, treatment methods of rupatadine (Example 14); format: in vivo
Method: In order to test various treatment methods of rupatadine, 25 high-risk calves were transported to a new farm. Seven calves were used as controls, six were given rupatadine as a single oral dose of 1 mg/kg, six were given rupatadine as a single subcutaneous injection of 7 mg/kg, six calves were given weekly subcutaneous injections of 7 mg/kg rupatadine. The animals were observed over the next five weeks twice daily for BRD. Any animal who required antibiotics for treating the clinical signs of BRD was classified as having BRD.
All the calves (100%, n=6 of 6) eventually developed BRD between days three and 31. […] The calf that did develop BRD did so on day 31.

PAFR [3] = assay: PAFR level in blood of treated calves by qRT-PCR (Example 14); format: in vivo; settings: weekly depot injection versus control and other rupatadine treatments
Method: Blood was extracted from all 25 calves was extracted weekly and the level of PAFR was assayed using qRT-PCR and the theoretical copies of transcript/200 ng of total RNA. […] However, it dropped the most in the weekly depot injection calves during the last three weeks of observations.

BRD [4] = assay: BRD prevention in high-risk calves, weekly injections (Example 13); format: in vivo; settings: after five weeks of weekly subcutaneous 7 mg/kg; BRD(+) calves usually >25%
Method: Twenty-five high-risk BRD calves were transported to a new barn and five each were assigned to different treatment groups: no treatment, weekly subcutaneous injections of 7 mg/kg of rupatadine, weekly injections of 1 mg/kg tripelennamine, weekly injections of 10 mg/kg WEB2086, and weekly injections of 1 mg/kg tripelennamine and 10 mg/kg WEB2086. The animals were observed over the next five weeks twice daily for BRD. Any animal who required antibiotics for treating the clinical signs of BRD was classified as having BRD. […] Four of the five (80%, n=4 of 5) animals receiving tripelennamine only developed BRD.
After the five weeks, the rupatadine treated animals were euthanized and the lungs removed and necropsied. Three veterinarians then assessed the lungs for signs of disease, such as abscessation or consolidation. […] Lung pathology in BRD(+) calves is usually >25%, and of the rupatadine treated animals, there was only about 5-10% disease identified by the veterinarians.

PAFR [5] = molecular target: T3, PAFR (Bos taurus, UniProt Q9TTY5); assay: Stress hormone- and commensal oral bacteria-mediated second messenger accumulation in calf blood cells; format: cell-based, cattle; settings: 500 nM inhibitor, blood of animals with increased PAFR expression, cortisol 5 ng/mL, norepinephrine 100 pg/mL, 10^6 CFUs/mL bacteria, six hours 37°C
T3 construct: endogenous in cells; host or cells: whole blood cells of cattle (ex vivo)
T3 sequence (Q9TTY5 whole entry): as the sequence (Q9TTY5 whole entry) above
Description: A PAFR inhibitor blocks the stress hormone- and commensal oral bacteria-mediated second messenger accumulation in calf blood cells that have an increase in expression of PAFR. Studies presented in Example 1 and FIG. 1 were repeated with the inclusion of the compositions comprising the anti-inflammatory drug rupatadine according to the invention. Blood was drawn from 10 animals that have an increase in PAFR expression (those in which an RT-PCR amplicon was visible after 10-15 cycles) and 10 animals with “normal” or no PAFR expression (those in which an RT-PCR amplicon was visible after 30-45 cycles).
Approximately 5 mL of whole blood was collected from the jugular or caudal vein of non-transported juvenile and adult cattle. Blood was placed in EDTA tubes, aliquoted, and cortisol (5 ng/mL) and norepinephrine (100 pg/mL) were added to some of the blood. The next day, blood samples were incubated with 0 or 10^6 CFUs/mL of commensal oral bacteria, 0 or 500 nM of the inhibitor, and a second messenger reagent for six hours at 37° C. with gentle rolling. After the six-hour incubation period, blood samples were analyzed for the production of second messengers. Data was standardized based on second messenger production in the presence of vehicle. […] Fifty ng of total RNA was then subjected to semi-quantitative RT-PCR to confirm the PAFR expression status of each animal.

BRD [6] = assay: BRD prevention at the feedlot, drug in the feed; format: in vivo, calves
Method: An initial study was performed to confirm BRD prevention at the feedlot using an anti-inflammatory composition comprising rupatadine, the oral inhibitor of PAFR. A total of 18 calves were evaluated with the treatment arm receiving a dosage rate of 0.3 mg/kg. Calves were provided the drug in the feed during the first three weeks after entering the feedlot which is within the high risk 6-week period following transfer of the animal. Calves were purchased from a location in Joplin, Mo. having an overall incidence of BRD at >40% which is higher than the standard incidence of about 10% in cattle.
A further study was performed to confirm BRD prevention at the feedlot using the anti-inflammatory composition comprising rupatadine. The same methodology of Example 5 was employed with the modification of the number of calves and the dosage rate. The dosage rate was increased to 0.6 mg/kg. The number of calves were increased to 24 in total. The results are consistent to the first trial, including: 41.7% of treated calves (n=5 of 12) developed BRD whereas 100% of untreated calves (n=12 of 12) developed BRD.
A further study was performed to confirm BRD prevention at the feedlot using the anti-inflammatory composition comprising rupatadine as outlined in Example 5 with the modification of the number of calves (20 total) and the dosage rate. The dosage rate increased to 1.2 mg/kg.

[7] = Pharmacotherapeutic study, blood levels after oral administration to feedlot calves; format: in vivo; settings: daily oral doses of 30 mg/animal for 5 days; six calves
Method: A pharmacotherapeutic study was completed to confirm the PAFRi survives the rumen and reaches therapeutic blood and lung concentrations following oral administration to feedlot calves. Six calves were purchased and given daily oral doses of 30 mg/animal of the drug rupatadine for 5 days. Blood was drawn five times on day one and twice per day thereafter to measure the blood levels of rupatadine.

Row | SMILES | block of bovine PAFR function, PAF-mediated intracellular calcium accumulation (FIG. 11) (Bovine PAFR) | block of the function of the H1 histamine receptor, intracellular calcium accumulation (FIG. 13) [1] | block of bovine PAFR function by antihistamines, PAF-mediated intracellular calcium accumulation (FIG. 12) (Bovine PAFR) | other results
1 | Cc1nnc2n1-c1sc(CCC(=O)N3CCOCC3)cc1C(c1ccccc1Cl)=NC2 [WEB2086] | blocked | fail to black | – | –
2 | CN(C)CCOC(c1ccccc1)c1ccccc1 [diphenhydramine] | – | – | do not block | –
3 | OCCOCCN1CCN(C(c2ccccc2)c2ccc(Cl)cc2)CC1 (stereo not shown) [hydroxyazine] | – | – | do not block | –
4 | CCOC(=O)[C@H](CC(C)C)N(C)S(=O)(=O)c1ccc(Cn2c(C)nc3cnccc32)cc1 [lexipafant] | blocked | fail to black | – | –
5 | CC(CN1c2ccccc2Sc2ccccc21)N(C)C (stereo not shown) [promethazine] | – | – | do not block | –
6 | COc1ccc(CN(CCN(C)C)c2ccccn2)cc1 [pyrilamine] | – | – | do not block | –
7 | Cc1cncc(CN2CCC(=C3c4ccc(Cl)cc4CCc4cccnc43)CC2)c1 [rupatadine, 8-chloro-11-[1-[(5-methyl-3-pyridyl)methyl]-4-piperidyliden]-6,11-dihydro-5H-benzo[5,6]cyclohepta[1,2-b]pyridine] | blocked | able to block | able to block PAFR function; also recorded: blocks | high risk animals that did not develop BRD (BRD [2]; weekly long-acting injections of 7 mg/kg): five out of six; animals that developed BRD (BRD [2]; weekly subcutaneous injections of 7 mg/kg, five-week observation, n=6): 16.7%; day on which the calf developed BRD (BRD [2]; weekly subcutaneous injections of 7 mg/kg, the one calf that developed BRD): 31 days; PAFR expression over a five-week period (PAFR [3]): greatest decrease in PAFR expression; lung disease identified by the veterinarians at necropsy (BRD [4]): 5-10%; stress hormone- and commensal oral bacteria-mediated second messenger accumulation (PAFR [5]): blocks; stress hormone- and commensal oral bacteria-mediated second messenger accumulation (PAFR [5]; listed as PAFRi): indistinct from normal or non-expressing samples; treated calves that developed BRD (BRD [6]; 0.3 mg/kg in the feed, first three weeks after entering the feedlot, 8 treated calves, within 5 weeks): 50%; treated calves that developed BRD (BRD [6]; 0.6 mg/kg in the feed, n=5 of 12): 41.7%; treated calves that developed BRD (BRD [6]; 1.2 mg/kg in the feed, n=3 of 10): 33.3%; blood levels of rupatadine (FIG. 9) [7]: reaches therapeutic concentrations more rapidly than in humans
8 | CN(C)CCN(Cc1ccccc1)c1ccccn1 [tripelennamine] | not blocked | able to block | do not block | –

Source: patent publication US10463656B2, “Methods and compositions for prevention of feedlot bovine respiratory disease” (Iowa State University Research Foundation, Inc., priority 2017, dated 2019)
